Reference: patent US9089601B2, “Pre- and intra-operative imaging of bladder cancer” (University of Rochester, priority 2006, dated 2015)

Columns and labels:
mammals = details: cited from earlier work; for neuronal toxicity: used in mammals
[1] = system: UPII-SV40T transgenic mice; assay: Intravesical instillation of ICG and intraoperative NIRF identification of lymphatic channels and SLNs in bladder tumor mice; assay type: in vivo
[2] = cited from earlier work

Compound	neuronal toxicity (mammals)	animals showing draining lymphatic channels and SLNs ([1]; 12 female mice, intravesical ICG 2.5 mg/mf, 100 or 200 μl, NIRF 20, 30 and 60 minutes later)	visualization of SLNs by intraoperative imaging ([1]; dye instilled at 10, 20, 30, or 60 minutes before imaging)	sentinel nodes detected per animal ([1]; in all animals, intravesical ICG, NIRF)	location of SLNs ([1]; intravesical ICG, NIRF)	fluorescence of lymphatic channels and nodes following instillation of the dye into the bladder ([1]; mouse, FIG. 1B and 1C)	metabolism ([2]; in the body)	excretion ([2]; in vivo)	reabsorption from the intestine / enterohepatic recirculation ([2]; in vivo)	toxicity (mammals; in vivo)
N=C(N)c1ccc(/C=C/c2ccc(C(=N)N)cc2O)cc1 [Fluorogold]	low evidence of neuronal toxicity	–	–	–	–	–	–	–	–	–
CC1(C)C(/C=C/C=C/C=C/C=C2\N(CCCCS(=O)(=O)O)c3ccc4ccccc4c3C2(C)C)=[N+](CCCCS(=O)(=O)[O-])c2ccc3ccccc3c21 [ICG, indocyanine green]	low evidence of neuronal toxicity	12 animals	successfully visualized	At least two	common or external iliac lymphatic chains	fluorescing of the mouse's lymphatic channels and nodes on iliac bifurcation	not metabolized	excreted exclusively by the liver	not reabsorbed from the intestine and does not undergo enterohepatic recirculation	low toxicity
Fast Blue	low evidence of neuronal toxicity	–	–	–	–	–	–	–	–	–
